The values that follow come from patent publication US20190269626A1, “Hair Protection Effect of Vanillyl Alkyl Ether and the Application thereof” (CORUM INC., priority 2018, published 2019).

For data set [1], the system named is PMA-induced inflammatory cytokines (IL-6 and IL-8) in HFDPC (human follicle dermal papilla cells). Kind of data set: PMA-induced inflammatory cytokines (IL-6 and IL-8) in HFDPC. The format is cell-based. The text has this:
Still another example of this embodiment is application of VBE on decreasing PMA-induced inflammation (IL-6 and IL-8). […] Capsaicin, nonivamide, and minoxidil are effectless to PMA-induced IL-6, and IL-8.

The test system of data set [2] is LPS-induced inflammatory cytokines (IL-6 and IL-8) in macrophages. As to the kind of experiment: LPS-induced inflammatory cytokines (IL-6 and IL-8) in macrophages. The format is cell-based. An excerpt: One preferred example of this embodiment is application of VBE on decreasing LPS-induced inflammation (IL-6, and IL-8).
Data set [3] has as its system ROS generation in HFDPC. As to the kind of experiment: ROS generation with/without pollutant in HFDPC. The format is cell-based, human. To be noted: for ROS generation, pollutant-stimulated condition: pollutant-triggered; for ROS generation, basal condition: without pollutant (basal). An excerpt:
FIG. 4A to FIG. 4B respectively presents with/without pollutant-triggered ROS generation on HFDPC by VBE, and CAP (capsaicin). […] Hair follicle is a mini-organ of the skin which contains dermal papilla cells (DPC) in the bottom site surrounded with matrix cells (keratinocytes) and melanocytes. DPC play an important role to regulate matrix cell proliferation, differentiation and apoptosis during hair cycles, and matrix cells are responsible for forming the major structures of the hair shaft. In the above examples, we established an in vitro model to investigate hair loss mechanism caused by air pollution. Based on our data, SRM1649b (urban dust) PM2.5 is able to activate AhR pathway, enhance ROS generation, up-regulate gene expression of alopecia-related factors (TGF-β2, TNF-α and PTGS2) and stimulate inflammatory cytokines (IL-6, IL-8, and GM-CSF) in human hair follicle dermal papilla cells. […] The mechanism of air pollution induced hair loss is illustrated in FIG. 5.

The test system of data set [4] is hair loss related genes expression (CYP1B1, TGF-β2, and TNF-α) in HFDPC. As to the kind of experiment: Pollutant-induced hair loss related genes expression in HFDPC. The format is cell-based, human. An excerpt:
Still another example of this embodiment is application of VBE on decreasing pollutant-induced hair loss related genes expression (CYP1B1, TGF-β2, and TNF-α) on HFDPC. FIG. 3 presents pollutant-induced hair loss related genes expression (CYP1B1, TGF-β2, and TNF-α) by VBE, and DMF. DMF is 3′,4′-dimethoxyflavone, and is a AhR (aryl hydrocarbon receptor) antagonist. Pollutants usually generate damages though activating the transcription factor AhR.
(§1) FIG. 5 presents how to improve hair loss of human hair follicle dermal papilla cells with VBE according to the above examples. Hair follicle is a mini-organ of the skin which contains dermal papilla cells (DPC) in the bottom site surrounded with matrix cells (keratinocytes) and melanocytes. DPC play an important role to regulate matrix cell proliferation, differentiation and apoptosis during hair cycles, and matrix cells are responsible for forming the major structures of the hair shaft. In the above examples, we established an in vitro model to investigate hair loss mechanism caused by air pollution. Based on our data, SRM1649b (urban dust) PM2.5 is able to activate AhR pathway, enhance ROS generation, up-regulate gene expression of alopecia-related factors (TGF-β2, TNF-α and PTGS2) and stimulate inflammatory cytokines (IL-6, IL-8, and GM-CSF) in human hair follicle dermal papilla cells. […] The mechanism of air pollution induced hair loss is illustrated in FIG. 5.

Data set [5] relates to anagen hairs and telogen hairs. Kind of data set: Clinical evaluation of VBE versus placebo, phototrichogram hair growth cycle analysis. It counts as in vivo, human. The conditions noted are these: topical once a day for 84 days, half-head versus placebo, subjects with androgenetic alopecia. How it is done:
Another example of this embodiment is clinical evaluation of the effect of VBE versus placebo in the male and female subjects after repeated application of 84 days through. The clinical test is finished by Spincontrol, France. The evaluation was performed using phototrichogram for hair growth cycle analysis. 11 healthy subjects from 25 to 49 years with a chronic hair loss/alopecia of androgenetic origin were selected for this study.

In data set [6] the test system is AhR pathway in human hair follicle dermal papilla cells. As to the kind of experiment: Air pollution (SRM1649b urban dust PM2.5) in vitro hair loss model in HFDPC: AhR activity and GM-CSF. It counts as cell-based.
Excerpt: as §1, with “Hair” for “FIG. 5 presents how to improve hair loss of human hair follicle dermal papilla cells with VBE according to the above examples. Hair”

Data set [7] has as its system 5-alpha reductase. As to the kind of experiment: 5-alpha reductase activity: DHT/Testosterone ratio in NHEK with [14C] testosterone. The format is cell-based, human.

Take `COc1cc(CNC(=O)CCCC/C=C/C(C)C)ccc1O` [Capsaicin]: in data set [1], the “PMA-induced IL-6” value is “no effect” and the “PMA-induced IL-8” value is listed as “no effect”. Moreover, in data set [2], the “LPS-induced IL-6” value is listed as “decreased” and the “LPS-induced IL-8” value was “decreased”. In data set [3], the “ROS generation, pollutant-stimulated condition” value is “no effect” and the “ROS generation, basal condition” value is “no effect”.

On to `COc1ccc(-c2cc(=O)c3ccccc3o2)cc1OC` [DMF, 3′,4′-dimethoxyflavone], for which, in data set [4], the “pollutant-induced CYP1B1 gene expression” value is listed as “reducing”, the “pollutant-induced TGF-β2 gene expression” value is on record as “reducing” and the “pollutant-induced TNF-α gene expression” value was “reducing”.

For `Nc1cc(N2CCCCC2)nc(N)[n+]1[O-]` [Minoxidil], in data set [1], the “PMA-induced IL-6” value is “no effect” and the “PMA-induced IL-8” value is “no effect”.

With `CCCCCCCCC(=O)NCc1ccc(O)c(OC)c1` [Nonivamide], in data set [1], the “PMA-induced IL-6” value is “no effect” and the “PMA-induced IL-8” value is on record as “no effect”. Further, in data set [2], the “LPS-induced IL-6” value is “decreased” and the “LPS-induced IL-8” value is on record as “decreased”.

With `CCCCOCc1ccc(O)c(OC)c1` [VBE, vanillyl butyl ether], in data set [5], the “Anagen (growing) hair” value is “increased”, the “Telogen (resting or shedding) hair” value is given as “reduced” and the “enhancement of ratio of Anagen to Telogen” value is 6%. Also, in data set [4], the “pollutant-induced CYP1B1 gene expression” value is “reduce”, the “pollutant-induced TGF-β2 gene expression” value was “reduce” and the “pollutant-induced TNF-α gene expression” value is listed as “reduce”. Besides, in data set [1], the “PMA-induced IL-6” value is recorded as “decrease” and the “PMA-induced IL-8” value is reported as “decrease”. Further, in data set [6], the AhR activity entry was “attenuating” and the GM-CSF production result was “attenuating”. In data set [2], the “LPS-induced IL-6” value was “decrease” and the “LPS-induced IL-8” value is on record as “decrease”. For the same molecule, in data set [3], the “ROS generation, pollutant-stimulated condition” value is recorded as “decreased” and the “ROS generation, basal condition” value was “decreased”. Also, in data set [7] (50 μg/ml), the “DHT/Testosterone ratio compared to control” value was determined as 64%. Also, the “DHT/Testosterone ratio, dose dependence” value in data set [7] (1.25 to 50 μg/ml) is recorded as “decreases DHT/Testosterone ratio in a dose dependent manner”.

Turning to `CC(C)(C)NC(=O)[C@H]1CC[C@H]2[C@@H]3CC[C@H]4NC(=O)C=C[C@]4(C)[C@H]3CC[C@]12C` [finasteride], the “DHT/testosterone ratio compared to the control condition” value in data set [7] (finasteride reference) worked out at 1%.
